Data taken from patent publication US7772241B2, “Variolin derivatives and their use as antitumor agents” (Pharma Mar S.A., priority 2001, dated 2010).
Where two headings read alike, the source gives them in different places.

Key:
K-562 = experiment: Inhibition of cells growth by colorimetric (SRB) assay, K-562
How it was run: (§1)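 Human tumour cells seeded at 5×10^3/well in RPMI 1640 10% FBS, attached 18 h, then exposed 48 h to samples at 10 to 10^−8 μg/ml in DMSO/EtOH/PBS (0.5:0.5:99). Growth read by SRB staining after TCA fixation, OD 490 nm, triplicate wells; GI, TGI and LC derived.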

A-549 = experiment: Inhibition of cells growth by colorimetric (SRB) assay, A-549; conditions: for GI50 / CC50: Homo sapiens, A549, 48 h; for GI50: read-out: A-549 GI50, SRB assay, 48 hours exposure; for A-549 TGI: SRB assay, 48 hours exposure
How it was run: as §1

SK-MEL-28 = experiment: Inhibition of cells growth by colorimetric (SRB) assay, SK-MEL-28; conditions: for GI50 / CC50: Homo sapiens, SK-MEL-28, 48 h; for GI50: read-out: MEL-28 GI50, SRB assay, 48 hours exposure; for MEL-28 TGI: SRB assay, 48 hours exposure
How it was run: as §1

HT-29 = experiment: Inhibition of cells growth by colorimetric (SRB) assay, HT-29; conditions: for GI50 / CC50: Homo sapiens, HT-29, 48 h; for GI50: read-out: HT-29 GI50, SRB assay, 48 hours exposure; for HT-29 TGI: SRB assay, 48 hours exposure
How it was run: as §1

LoVo = experiment: Inhibition of cells growth by colorimetric (SRB) assay, LoVo; conditions: for GI50 / CC50: Homo sapiens, LoVo, 48 h; for GI50: read-out: LOVO GI50, SRB assay, 48 hours exposure; for LOVO TGI: SRB assay, 48 hours exposure
How it was run: as §1

LoVo-Dox = experiment: Inhibition of cells growth by colorimetric (SRB) assay, LoVo-Dox; conditions: for GI50 / CC50: Homo sapiens, 48 h; for GI50: read-out: LOVO-DOX GI50, SRB assay, 48 hours exposure; for LOVO-DOX TGI: SRB assay, 48 hours exposure
How it was run: as §1

DU-145 = experiment: Inhibition of cells growth by colorimetric (SRB) assay, DU-145; conditions: for GI50 / CC50: Homo sapiens, DU-145, 48 h; for GI50: read-out: DU-145 GI50, SRB assay, 48 hours exposure; for DU-145 TGI: SRB assay, 48 hours exposure
How it was run: as §1

LNCaP = experiment: Inhibition of cells growth by colorimetric (SRB) assay, LNCaP
How it was run: as §1

SK-BR-3 = experiment: Inhibition of cells growth by colorimetric (SRB) assay, SK-BR-3; conditions: for GI50 / CC50: Homo sapiens, SK-BR-3, 48 h; for GI50: read-out: SK-BR-3 GI50, SRB assay, 48 hours exposure; for SK-BR-3 TGI: SRB assay, 48 hours exposure
How it was run: as §1

IGROV-1 = experiment: Inhibition of cells growth by colorimetric (SRB) assay, IGROV-1; conditions: for GI50 / CC50: Homo sapiens, IGROV-1, 48 h; for GI50: read-out: IGROV GI50, SRB assay, 48 hours exposure; for IGROV TGI: SRB assay, 48 hours exposure
How it was run: as §1

IGROV-ET = experiment: Inhibition of cells growth by colorimetric (SRB) assay, IGROV-ET; conditions: for GI50 / CC50: Homo sapiens, 48 h; for GI50: read-out: IGROV-ET GI50, SRB assay, 48 hours exposure; for IGROV-ET TGI: SRB assay, 48 hours exposure
How it was run: as §1

HeLa = experiment: Inhibition of cells growth by colorimetric (SRB) assay, HeLa; conditions: for GI50: Homo sapiens, HeLa, 48 h, read-out: HELA GI50, SRB assay, 48 hours exposure; for HELA TGI: SRB assay, 48 hours exposure
Description: (§2) The finality of these assays is to interrupt the growth of a “in vitro” tumor cell culture by means a continued exhibition of the cells to the sample to be testing.
(§3) This form of the assay employs 96 well cell culture microplates of 9 mm diameter (Faircloth, 1988; Mosmann, 1983). Most of the cell lines are obtained from American Type Culture Collection (ATCC) derived from different human cancer types.
(§4) Cells are maintained in RPMI 1640 10% FBS, supplemented with 0.1 g/l penicillin and 0.1 g/l streptomycin sulphate and then incubated at 37° C., 5% CO2 and 98% humidity. For the experiments, cells were harvested from subconfluent cultures using trypsin and resuspended in fresh medium before plating.
(§5) Cells are seeded in 96 well microtiter plates, at 5×10^3 cells per well in aliquots of 195 μl medium, and they are allowed to attach to the plate surface by growing in drug free medium for 18 hours. Afterward, samples are added in aliquots of 5 μl in a ranging from 10 to 10^−8 μg/ml, dissolved in DMSO/EtOH/PBS (0.5:0.5:99). After 48 hours exposure, the antitumor effect are measured by the SRB methodology: cells are fixed by adding 50 μl of cold 50% (wt/vol) trichloroacetic acid (TCA) and incubating for 60 minutes at 4° C. Plates are washed with deionized water and dried. One hundred μl of SRB solution (0.4% wt/vol in 1% acetic acid) is added to each microtiter well and incubated for 10 minutes at room temperature. Unbound SRB is removed by washing with 1% acetic acid. Plates are air dried and bound stain is solubilized with Tris buffer. Optical densities are read on a automated spectrophotometric plate reader at a single wavelength of 490 nm.
(§6) The values for mean +/−SD of data from triplicate wells are calculated. Some parameters for cellular responses can be calculated: GI=growth inhibition, TGI=total growth inhibition (cytostatic effect) and LC=cell killing (cytotoxic effect).

HeLa-APL = experiment: Inhibition of cells growth by colorimetric (SRB) assay, HeLa-APL; conditions: for GI50 / CC50: Homo sapiens, 48 h; for HELA-APL TGI: SRB assay, 48 hours exposure
Description: as §2, §3, §4, §5, §6

PANC-1 = experiment: Inhibition of cells growth by colorimetric (SRB) assay, PANC-1; conditions: for GI50 / CC50: Homo sapiens, PANC-1, 48 h; for GI50: read-out: PANC-1 GI50, SRB assay, 48 hours exposure; for PANC-1 TGI: SRB assay, 48 hours exposure
How it was run: as §1

Cl.Nc1nccc(-c2c3c(O)ccnc3n3c(N)nccc23)n1 [Compound 54]
GI50 (K-562; Homo sapiens, K562, 48 h, read-out: K-562 GI50, SRB assay, 48 hours exposure): 1670 nM | CC50 (K-562; Homo sapiens, K562, 48 h, read-out: K-562 LC50): 27300 nM | K-562 TGI (K-562; SRB assay, 48 hours exposure): 1.44E−05 | GI50 (A-549): 339 nM | CC50 (A-549; read-out: A-549 LC50): 27300 nM | A-549 TGI (A-549): 1.10E−06 | GI50 (SK-MEL-28): 945 nM | CC50 (SK-MEL-28; read-out: MEL-28 LC50): 11400 nM | MEL-28 TGI (SK-MEL-28): 3.22E−06 | GI50 (HT-29): 1690 nM | CC50 (HT-29; read-out: HT-29 LC50): 27300 nM | HT-29 TGI (HT-29): 8.71E−06 | GI50 (LoVo): 266 nM | CC50 (LoVo; read-out: LOVO LC50): 27300 nM | LOVO TGI (LoVo): 1.04E−06 | GI50 (LoVo-Dox): 155 nM | CC50 (LoVo-Dox; read-out: LOVO-DOX LC50): 27300 nM | LOVO-DOX TGI (LoVo-Dox): 7.32E−07 | GI50 (DU-145): 360 nM | CC50 (DU-145; read-out: DU-145 LC50): 27300 nM | DU-145 TGI (DU-145): 1.32E−06 | GI50 (LNCaP; Homo sapiens, LNCaP, 48 h, read-out: LN-caP GI50, SRB assay, 48 hours exposure): 287 nM | CC50 (LNCaP; Homo sapiens, LNCaP, 48 h, read-out: LN-caP LC50): 1820 nM | LN-caP TGI (LNCaP; SRB assay, 48 hours exposure): 7.24E−07 | GI50 (SK-BR-3): 530 nM | CC50 (SK-BR-3; read-out: SK-BR-3 LC50): 2670 nM | SK-BR-3 TGI (SK-BR-3): 1.19E−06 | GI50 (IGROV-1): 440 nM | CC50 (IGROV-1; read-out: IGROV LC50): 27300 nM | IGROV TGI (IGROV-1): 1.37E−06 | GI50 (IGROV-ET): 421 nM | CC50 (IGROV-ET; read-out: IGROV-ET LC50): 27300 nM | IGROV-ET TGI (IGROV-ET): 1.48E−06 | GI50 (HeLa): 57.3 nM | HELA TGI (HeLa): 1.17E−07 | GI50 (HeLa-APL; read-out: HELA-APL GI50): 61.2 nM | CC50 (HeLa-APL; read-out: HELA-APL LC50): 270 nM | HELA-APL TGI (HeLa-APL): 1.28E−07 | GI50 (PANC-1): 871 nM | CC50 (PANC-1; read-out: PANC-1 LC50): 27300 nM | PANC-1 TGI (PANC-1): 3.28E−06

CSc1nccc(-c2c3c(Cl)ccnc3n3c(N)nccc23)n1.Cl [Compound 108]
GI50 (A-549): 2020 nM | CC50 (A-549; read-out: A-549 LC50, SRB assay, 48 hours exposure): 26400 nM | A-549 TGI (A-549): 2.16E−05 | GI50 (SK-MEL-28): 925 nM | CC50 (SK-MEL-28; read-out: MEL-28 LC50, SRB assay, 48 hours exposure): 26400 nM | MEL-28 TGI (SK-MEL-28): 2.64E−05 | GI50 (HT-29): 701 nM | CC50 (HT-29; read-out: HT-29 LC50, SRB assay, 48 hours exposure): 26400 nM | HT-29 TGI (HT-29): 2.64E−05 | GI50 (LoVo): 208 nM | CC50 (LoVo; read-out: LOVO LC50, SRB assay, 48 hours exposure): 4850 nM | LOVO TGI (LoVo): 7.57E−07 | GI50 (LoVo-Dox): 680 nM | CC50 (LoVo-Dox; read-out: LOVO-DOX LC50, SRB assay, 48 hours exposure): 26400 nM | LOVO-DOX TGI (LoVo-Dox): 1.61E−06 | GI50 (DU-145): 1500 nM | CC50 (DU-145; read-out: DU-145 LC50, SRB assay, 48 hours exposure): 26400 nM | DU-145 TGI (DU-145): 2.64E−05 | GI50 (SK-BR-3): 5620 nM | CC50 (SK-BR-3; read-out: SK-BR-3 LC50, SRB assay, 48 hours exposure): 26400 nM | SK-BR-3 TGI (SK-BR-3): 1.60E−05 | GI50 (IGROV-1): 2330 nM | CC50 (IGROV-1; read-out: IGROV LC50, SRB assay, 48 hours exposure): 26400 nM | IGROV TGI (IGROV-1): 2.64E−05 | GI50 (IGROV-ET): 11300 nM | CC50 (IGROV-ET; read-out: IGROV-ET LC50, SRB assay, 48 hours exposure): 26400 nM | IGROV-ET TGI (IGROV-ET): 2.64E−05 | GI50 (HeLa): 7.51 nM | HELA TGI (HeLa): 1.15E−07 | GI50 (HeLa-APL; read-out: HELA-APL GI50, SRB assay, 48 hours exposure): 9.54 nM | CC50 (HeLa-APL; read-out: HELA-APL LC50, SRB assay, 48 hours exposure): 26400 nM | HELA-APL TGI (HeLa-APL): 2.04E−07 | GI50 (PANC-1): 3370 nM | CC50 (PANC-1; read-out: PANC-1 LC50, SRB assay, 48 hours exposure): 26400 nM | PANC-1 TGI (PANC-1): 2.64E−05
